The values that follow come from PMC8397425, “A Strategy to Conjugate Bioactive Fragments to Cytotoxic Diiron Bis(cyclopentadienyl) Complexes” (Organometallics, 2021).

One may read the IC50 as the point on the concentration scale where inhibition reaches its midpoint. Read a high IC50 as a need for much substance.

In assay [1] the test system is Human Ovarian Carcinoma (A2780) cell line. The assay can be described thus: MTT cytotoxicity, A2780. The format is cell-based. Conditions: for IC50: 72 h exposure, MTT, mean ± SD. The source says: Human ovarian carcinoma (A2780 and A2780cisR) cell lines were obtained from the European Collection of Cell Cultures. The Human Embryonic Kidney 293T (HEK 293T) cell line was obtained from the ATCC (Sigma, Buchs, Switzerland). Penicillin–streptomycin, RPMI 1640 GlutaMAX (where RPMI = Roswell Park Memorial Institute), and DMEM GlutaMAX media (where DMEM = Dulbecco’s modified Eagle medium) were obtained from Life Technologies, and fetal bovine serum (FBS) was obtained from Sigma. The cells were cultured in RPMI 1640 GlutaMAX (A2780 and A2780cisR) and DMEM GlutaMAX (HEK 293T) media containing 10% heat-inactivated FBS and 1% penicillin–streptomycin at 37 °C and CO2 (5%). The A2780cisR cell line was routinely treated with cisplatin (2 μM) in the media to maintain cisplatin resistance. The cytotoxicity was determined using the 3-(4,5-dimethyl-2-thiazolyl)-2,5-diphenyl-2H-tetrazolium bromide (MTT) assay.[42] Cells were seeded in flat-bottomed 96-well plates as a suspension in a prepared medium (100 μL aliquots and approximately 4300 cells/well) and preincubated for 24 h. Stock solutions of compounds were prepared in DMSO and were diluted in the medium. The solutions were sequentially diluted to give a final DMSO concentration of 0.5% and a final compound concentration range of 0–200 μM. Cisplatin was tested as a positive (0–100 μM) control. The compounds were placed in the preincubated 96-well plates in 100 μL aliquots, and the plates were incubated for a further 72 h. MTT (20 μL, 5 mg/mL in Dulbecco’s phosphate buffered saline) was placed in the cells, and the plates were incubated for a further 4 h. The culture medium was aspirated, and the purple formazan crystals, formed by the mitochondrial dehydrogenase activity of vital cells, were dissolved in DMSO (100 μL/well). The absorbance of the resulting solutions, directly proportional to the number of surviving cells, was quantified at 590 nm using a SpectroMax M5e multimode microplate reader (using SoftMax Pro software, version 6.2.2). The percentage of surviving cells was calculated from the absorbance of wells corresponding to the untreated control cells. The reported IC50 values are based on the means from two independent experiments, each comprising four tests per concentration level.

A further assay relates to A2780 cells. The assay can be described thus: Intracellular ROS production, DCFH-DA assay. The following applies: for ROS production compared to H2O2 positive control: 10 μM compound vs H2O2 100 μM, 24 h; for intracellular ROS levels: 10 μM, up to 24 h, DCFH-DA fluorescence. In kind it is cell-based, human. How it is done:
In order to shed light on the possible mechanism of action of the biofunctionalized diiron complexes, a series of complementary studies were performed. It was previously shown that the diiron vinyliminium structural motif induces ROS production, possibly associated with more than one mechanism: (1) monoelectron reduction of the complex favored by its net cationic charge; (2) fragmentation into a monoiron derivative and atomic iron; […] After overnight incubation, the cells were treated following the manufacturer’s protocol. […] Stock solutions of compounds were prepared as described above; cells incubated with equal amounts of DMSO in supplemented RPMI were used as a control. The fluorescence was measured up to 24 h with an excitation wavelength of 485 nm and with a 535 nm emission filter by Multilabel Counter (PerkinElmer, Waltham, MA, USA). The measurements were performed in triplicate, and results were reported as mean ± SD. Statistical differences were examined using one-way analysis of variance (ANOVA), and a Tukey test was used for post hoc analysis.

In assay [1], “[Fe2Cp2(CO)(μ-CO){μ-η^1:η^3-Cγ(3-C6H4OC(=O)C6H4OC(=O)Me)CβHCαNMe(Xyl)}]CF3SO3 [[4]CF3SO3]” displayed an IC50 of 2.8 ± 0.4 µM. In the assay with A2780 cells, the “ROS production compared to H2O2 positive control” value is given as “ROS production higher than that recorded for H2O2” and the “intracellular ROS levels” value is “Significant intracellular ROS levels”.

Consider “[Fe2Cp2(CO)(μ-CO){μ-η^1:η^3-Cγ(3-C6H4NHC(=O)(CH2)3C6H4N(CH2CH2Cl)2)CβHCαNMe2}]CF3SO3 [[9]CF3SO3]”, for which the IC50 in assay [1] came out at 1.8 ± 0.3 µM. Besides, the “selectivity (SI)” value in assay [1] (HEK 293T relative to A2780) amounted to 5. Besides, in the assay on A2780 cells, the “ROS production compared to H2O2 positive control” value was “ROS production higher than that recorded for H2O2” and the “intracellular ROS levels” value was “Significant intracellular ROS levels”.
